A short description of the assay: Test 2: blood pressure depression up to 24 hours and duration until 50% recovery, oral. It is filed as in vivo, Male, spontaneously hypertension-developing rats. To be noted: for response vs control in vivo at 25 mg/kg: Rattus norvegicus; for Duration 50% recovery: duration until pressure recovered to 50% from the maximum depression value. The protocol:
Male, spontaneously hypertension-developing rats of ages of 10 to 11 weeks (in groups of 3 to 5 animals) were used in the test. For blood pressure determination, systolic pressure was measured without anesthesia by an indirect tail-cuff method using a sphygmomanometer (PE-300, Narco Bio-System).

The mark [1] stands for this setting: 1h after oral administration, percent based on that before administration (100), read-out: Depression value (%) of blood pressure, 1h.
[2] abbreviates: 2h after oral administration, percent based on that before administration (100), read-out: Depression value (%) of blood pressure, 2h.
Where [3] appears, read: 4h after oral administration, percent based on that before administration (100), read-out: Depression value (%) of blood pressure, 4h.
Where [4] appears, read: 7h after oral administration, percent based on that before administration (100), read-out: Depression value (%) of blood pressure, 7h.
The mark [5] stands for this setting: 24h after oral administration, percent based on that before administration (100), read-out: Depression value (%) of blood pressure, 24h.
[6] abbreviates: maximum lowering, percent based on that before administration (100), read-out: Depression value (%) of blood pressure, Max.

Like-named read-outs stand apart in the source and are kept apart here.

For the compound `COC(=O)C1=C(C)NC(C)=C(C(=O)OCCN(C)Cc2ccccc2)C1c1cccc(C(F)(F)F)n1` (stereo not drawn) [(9), 2,6-Dimethyl-4-(6-trifluoromethyl-2-pyridyl)-1,4-dihydropyridine-3,5-dicarboxylic acid 3-β-(N-benzyl-N-methylamino)ethyl ester 5-methyl ester], the “Duration 50% recovery” value was 4.6 h. The response vs control in vivo at 25 mg/kg under setting [1] came out at 85%. Also, the response vs control in vivo at 25 mg/kg under setting [2] was found to be 92%. Besides, under setting [3], the response vs control in vivo at 25 mg/kg is 91%. Further, the response vs control in vivo at 25 mg/kg under setting [4] is 104%. Under setting [5], the response vs control in vivo at 25 mg/kg is 119%. In addition, the response vs control in vivo at 25 mg/kg under setting [6] stood at 85%.
In the case of `COC(=O)C1=C(C)NC(C)=C(C(=O)OCCN(C)Cc2ccccc2)C1c1cccc([N+](=O)[O-])c1` (stereo not drawn) [Nic, 2,6-dimethyl-4-(3-nitrophenyl)-1,4-dihydropyridine-3,5-dicarboxylic acid 3-β-(N-benzyl-N-methylamino)ethyl ester 5-methyl ester, reference compound], the “Duration 50% recovery” value was 7.0 h. Moreover, under setting [1], the response vs control in vivo at 25 mg/kg is 62%. The response vs control in vivo at 25 mg/kg under setting [2] turned out to be 68%. The response vs control in vivo at 25 mg/kg under setting [3] was determined as 76%. For the same compound, under setting [4], the response vs control in vivo at 25 mg/kg was found to be 81%. Besides, under setting [5], the response vs control in vivo at 25 mg/kg was determined as 96%. Also, under setting [6], the response vs control in vivo at 25 mg/kg came out at 62%.
`COC(=O)C1=C(C)NC(C)=C(C(=O)OCCN(C)Cc2ccccc2)C1c1cccnc1Br` (centres unmarked) [(11)]: the “Duration 50% recovery” value was determined as 6.7 h. In addition, the response vs control in vivo at 25 mg/kg under setting [1] was found to be 83%. The response vs control in vivo at 25 mg/kg under setting [2] is 82%. The response vs control in vivo at 25 mg/kg under setting [3] was 87%. Further, the response vs control in vivo at 25 mg/kg under setting [4] turned out to be 91%. Also, the response vs control in vivo at 25 mg/kg under setting [5] turned out to be 97%. Further, the response vs control in vivo at 25 mg/kg under setting [6] amounted to 82%.
In the case of `COC(=O)C1=C(C)NC(C)=C(C(=O)OCCN(C)Cc2ccccc2)C1c1cc(Br)ccn1` (stereo not drawn) [(2), 2,6-Dimethyl-4-(4-bromo-2-pyridyl)-1,4-dihydropyridine-3,5-dicarboxylicacid 3-β-(N-benzyl-N-methylamino)ethyl ester 5-methyl ester], the “Duration 50% recovery” value is listed as 5.8 h. In addition, the response vs control in vivo at 25 mg/kg under setting [1] amounted to 70%. Further, under setting [2], the response vs control in vivo at 25 mg/kg was found to be 76%. The response vs control in vivo at 25 mg/kg under setting [3] is 75%. For the same compound, the response vs control in vivo at 25 mg/kg under setting [4] is 92%. The response vs control in vivo at 25 mg/kg under setting [5] amounted to 102%. Further, under setting [6], the response vs control in vivo at 25 mg/kg came to 70%.
As to `COC(=O)C1=C(C)NC(C)=C(C(=O)OCCN(C)Cc2ccccc2)C1c1cncc(C(F)(F)F)c1` (stereo not drawn) [(17), 2,6-Dimethyl-4-(5-trifluoromethyl-3-pyridyl)-1,4-dihydropyridine-3,5-dicarboxylic acid 3-β-(N-benzyl-N-methylamino)ethyl ester 5-methyl ester], the “Duration 50% recovery” value worked out at 4.2 h. The response vs control in vivo at 25 mg/kg under setting [1] worked out at 91%. Moreover, the response vs control in vivo at 25 mg/kg under setting [2] is 92%. Also, the response vs control in vivo at 25 mg/kg under setting [3] was found to be 95%. Moreover, the response vs control in vivo at 25 mg/kg under setting [4] came out at 98%. Under setting [5], the response vs control in vivo at 25 mg/kg worked out at 105%. Also, the response vs control in vivo at 25 mg/kg under setting [6] is 91%.
With `COC(=O)C1=C(C)NC(C)=C(C(=O)OCCN(C)Cc2ccccc2)C1c1cccc(Cl)n1` (stereo not drawn) [(7), 2,6-Dimethyl-4-(6-chloro-2-pyridyl)-1,4-dihydropyridine-3,5-dicarboxylic a cid 3-β-(N-benzyl-N-methylamino)ethyl ester 5-methyl ester], the “Duration 50% recovery” value stood at 6.0 h. In addition, under setting [1], the response vs control in vivo at 25 mg/kg was determined as 83%. Also, the response vs control in vivo at 25 mg/kg under setting [2] came out at 84%. For the same compound, the response vs control in vivo at 25 mg/kg under setting [3] was found to be 87%. The response vs control in vivo at 25 mg/kg under setting [4] is 93%. The response vs control in vivo at 25 mg/kg under setting [5] turned out to be 101%. Further, the response vs control in vivo at 25 mg/kg under setting [6] was determined as 83%.
With `COC(=O)C1=C(C)NC(C)=C(C(=O)OCCN(C)Cc2ccccc2)C1c1cccc([N+](=O)[O-])n1` (stereo not drawn) [(10), 2,6-Dimethyl-4-(6-nitro-2-pyridyl)-1,4-dihydropyridine-3,5-dicarboxylic ac id 3-β-(N-benzyl-N-methylamino)ethyl ester 5-methyl ester], the “Duration 50% recovery” value amounted to 2.4 h. For the same compound, under setting [1], the response vs control in vivo at 25 mg/kg came to 99%. For the same compound, the response vs control in vivo at 25 mg/kg under setting [2] worked out at 95%. The response vs control in vivo at 25 mg/kg under setting [3] came out at 107%. Also, under setting [4], the response vs control in vivo at 25 mg/kg was found to be 110%. For the same compound, the response vs control in vivo at 25 mg/kg under setting [5] was 120%. Further, the response vs control in vivo at 25 mg/kg under setting [6] was 95%.
On to `COC(=O)C1=C(C)NC(C)=C(C(=O)OCCN(C)Cc2ccccc2)C1c1cncc([N+](=O)[O-])c1` (stereo not drawn) [(18), 2,6-Dimethyl-4-(5-nitro-3-pyridyl)-1,4-dihydropyridine-3,5-dicarboxylic ac id 3-β-(N-benzyl-N-methylamino)ethyl ester 5-methyl ester], for which the “Duration 50% recovery” value is recorded as 3.7 h. Moreover, the response vs control in vivo at 25 mg/kg under setting [1] came out at 90%. Further, the response vs control in vivo at 25 mg/kg under setting [2] stood at 86%. Further, the response vs control in vivo at 25 mg/kg under setting [3] came out at 95%. For the same compound, under setting [4], the response vs control in vivo at 25 mg/kg amounted to 96%. Moreover, the response vs control in vivo at 25 mg/kg under setting [5] was found to be 96%. Moreover, the response vs control in vivo at 25 mg/kg under setting [6] stood at 86%.
For `COC(=O)C1=C(C)NC(C)=C(C(=O)OCCN(C)Cc2ccccc2)C1c1cncc(Br)c1` (stereo not drawn) [(14), 2,6-Dimethyl-4-(5-bromo-3-pyridyl)-1,4-dihydropyridine-3,5-dicarboxylic ac id 3-β-(N-benzyl-N-methylamino)ethyl ester 5-methyl ester], the “Duration 50% recovery” value was found to be 9.3 h. The response vs control in vivo at 25 mg/kg under setting [1] was found to be 83%. For the same compound, the response vs control in vivo at 25 mg/kg under setting [2] is 91%. Also, the response vs control in vivo at 25 mg/kg under setting [3] came out at 90%. In addition, under setting [4], the response vs control in vivo at 25 mg/kg worked out at 90%. Moreover, the response vs control in vivo at 25 mg/kg under setting [5] was 101%. The response vs control in vivo at 25 mg/kg under setting [6] was 83%.
In the case of `COC(=O)C1=C(C)NC(C)=C(C(=O)OCCN(C)Cc2ccccc2)C1c1cccnc1C#N` (stereo not drawn) [(12), 2,6-Dimethyl-4-(2-cyano-3-pyridyl)-1,4-dihydropyridine-3,5-dicarboxylic ac id 3-β-(N-benzyl-N-methylamino)ethyl ester 5-methyl ester], the “Duration 50% recovery” value was 5.6 h. Under setting [1], the response vs control in vivo at 25 mg/kg turned out to be 66%. Besides, under setting [2], the response vs control in vivo at 25 mg/kg stood at 71%. In addition, the response vs control in vivo at 25 mg/kg under setting [3] was 76%. Also, under setting [4], the response vs control in vivo at 25 mg/kg is 88%. For the same compound, the response vs control in vivo at 25 mg/kg under setting [5] stood at 98%. Further, the response vs control in vivo at 25 mg/kg under setting [6] was found to be 66%.
With `COC(=O)C1=C(C)NC(C)=C(C(=O)OCCN(C)Cc2ccccc2)C1c1ccnc(C#N)c1` (stereo not drawn) [(19), 2,6-Dimethyl-4-(2-cyano-4-pyridyl)-1,4-dihydropyridine-3,5-dicarboxylic ac id 3-β-(N-benzyl-N-methylamino)ethyl ester 5-methyl ester], the “Duration 50% recovery” value stood at 1.7 h. Besides, the response vs control in vivo at 25 mg/kg under setting [1] worked out at 75%. Besides, under setting [2], the response vs control in vivo at 25 mg/kg is 94%. Besides, the response vs control in vivo at 25 mg/kg under setting [3] is 100%. The response vs control in vivo at 25 mg/kg under setting [4] was 98%. Besides, under setting [5], the response vs control in vivo at 25 mg/kg was 99%. For the same compound, the response vs control in vivo at 25 mg/kg under setting [6] came to 75%.
Regarding `COC(=O)C1=C(C)NC(C)=C(C(=O)OCCN(C)Cc2ccccc2)C1c1cccnc1C(F)(F)F` (stereo not drawn) [(13), 2,6-Dimethyl-4-(2-trifluoromethyl-3-pyridyl)-1,4-dihydropyridine-3,5-dicarboxylic acid 3-β-(benzyl-N-methylamino)ethyl ester 5-methyl ester], the “Duration 50% recovery” value worked out at 16.2 h. The response vs control in vivo at 25 mg/kg under setting [1] was determined as 73%. Under setting [2], the response vs control in vivo at 25 mg/kg amounted to 67%. Under setting [3], the response vs control in vivo at 25 mg/kg was found to be 67%. Besides, the response vs control in vivo at 25 mg/kg under setting [4] was determined as 71%. Besides, under setting [5], the response vs control in vivo at 25 mg/kg is 94%. Further, under setting [6], the response vs control in vivo at 25 mg/kg was 67%.
With `COC(=O)C1=C(C)NC(C)=C(C(=O)OC)C1c1ccccc1[N+](=O)[O-]` [Nif, 2,6-dimethyl-4-(2-nitrophenyl)-1,4-dihydropyridine-3,5-dicarboxylic acid dimethyl ester, reference compound], the “Duration 50% recovery” value is on record as 19.4 h. For the same compound, under “po, 1 h, read-out: Depression value (%) of blood pressure, 1h”, the response vs control in vivo at 25 mg/kg came out at 72%. Moreover, the response vs control in vivo at 25 mg/kg (po, 2 h, read-out: Depression value (%) of blood pressure, 2h) was 73%. Besides, the response vs control in vivo at 25 mg/kg (po, 4 h, read-out: Depression value (%) of blood pressure, 4h) is 77%. The response vs control in vivo at 25 mg/kg (po, 7 h, read-out: Depression value (%) of blood pressure, 7h) stood at 70%. In addition, the response vs control in vivo at 25 mg/kg (po, 24 h, read-out: Depression value (%) of blood pressure, 24h) was 90%. The response vs control in vivo at 25 mg/kg (read-out: Depression value (%) of blood pressure, Max) stood at 70%.
With `COC(=O)C1=C(C)NC(C)=C(C(=O)OCCN(C)Cc2ccccc2)C1c1ccc(C#N)nc1` (stereo not drawn) [(15), 2,6-Dimethyl-4-(6-cyano-3-pyridyl)-1,4-dihydropyridine-3,5-dicarboxylic ac id 3-β-(N-benzyl-N-methylamino)ethyl ester 5-methyl ester], the “Duration 50% recovery” value is 15.1 h. Further, the response vs control in vivo at 25 mg/kg under setting [1] came out at 88%. Moreover, the response vs control in vivo at 25 mg/kg under setting [2] came out at 90%. For the same compound, the response vs control in vivo at 25 mg/kg under setting [3] is 83%. For the same compound, the response vs control in vivo at 25 mg/kg under setting [4] stood at 89%. For the same compound, under setting [5], the response vs control in vivo at 25 mg/kg was determined as 95%. The response vs control in vivo at 25 mg/kg under setting [6] was 83%.
